Experimental data reported in the NIST ThermoML archive (doi:10.1016/j.jct.2006.05.006).
Numbers after ± are expanded uncertainties.

Key:
[1] = refractive index (Na D-line) (dimensionless); conditions: 293.1 K; 101.33 kPa; Liquid; Standard Abbe refractometry
[2] = 101 kPa, Liquid
[3] = xn = mol fraction of the nth substance listed; conditions: 101 kPa, Liquid

CN1CCCC1=O [N-methylpyrrolidone]
Conditions	refractive index
[1]	1.4677 ± 0.0007

[2]
Conditions	mass density [kg/m3]
293.15 K	1032.66 ± 0.37
303.15 K	1023.42 ± 0.34
313.15 K	1014.27 ± 0.31
323.15 K	1005.62 ± 0.28
333.15 K	996.28 ± 0.28
343.15 K	987.39 ± 0.31
353.15 K	978.62 ± 0.65

CN1CCCC1=O [N-methylpyrrolidone] + CCc1ccccc1
[3], x2 = 0
Conditions	mass density [kg/m3]
293.15 K	1032.66 ± 0.37
303.15 K	1023.42 ± 0.34
313.15 K	1014.27 ± 0.31
323.15 K	1005.62 ± 0.28
333.15 K	996.28 ± 0.28
343.15 K	987.39 ± 0.31
353.15 K	978.62 ± 0.33

c1ccccc1 [benzene]
Conditions	refractive index
[1]	1.5009 ± 0.0007

[2]
Conditions	mass density [kg/m3]
293.15 K	878.96 ± 0.64
303.15 K	868.21 ± 0.67
313.15 K	857.4 ± 0.71
323.15 K	846.55 ± 0.74
333.15 K	835.66 ± 0.78
343.15 K	824.71 ± 0.81

c1ccccc1 [benzene] + CN1CCCC1=O
[3], x1 = 1
Conditions	mass density [kg/m3]
293.15 K	878.96 ± 0.64
303.15 K	868.21 ± 0.67
313.15 K	857.4 ± 0.71
323.15 K	846.55 ± 0.74
333.15 K	835.66 ± 0.78
343.15 K	824.71 ± 0.81

CCc1ccccc1 [ethylbenzene]
Conditions	refractive index
[1]	1.4962 ± 0.0008

[2]
Conditions	mass density [kg/m3]
293.15 K	867.28 ± 0.81
303.15 K	858.36 ± 0.84
313.15 K	849.38 ± 0.86
323.15 K	840.35 ± 0.89
333.15 K	831.25 ± 0.91
343.15 K	822.11 ± 0.94
353.15 K	812.9 ± 0.97

Cc1ccccc1 [toluene]
Conditions	refractive index
[1]	1.4965 ± 0.0008

[2]
Conditions	mass density [kg/m3]
293.15 K	866.8 ± 1.9
303.15 K	857.53 ± 2
313.15 K	848.23 ± 2
323.15 K	838.91 ± 2.1
333.15 K	829.55 ± 2.1
343.15 K	820.17 ± 2.2
353.15 K	810.77 ± 2.2

Cc1ccccc1 [toluene] + CN1CCCC1=O
[3], x1 = 1
Conditions	mass density [kg/m3]
293.15 K	866.8 ± 1.9
303.15 K	857.53 ± 2
313.15 K	848.23 ± 2
323.15 K	838.91 ± 2.1
333.15 K	829.55 ± 2.1
343.15 K	820.17 ± 2.2
353.15 K	810.77 ± 2.2
